US20240009104A1, “PROCESS FOR EXTRACTION AND HEMI-SYNTHESIS OF PYRANOANTHOCYANINS AND SKINCARE COSMETIC FORMULATIONS CONTAINING THEM” (UNIVERSIDADE DO PORTO, priority 2021, published 2024)

Experiments:
[1] = Determination of solar protection factor (SPF), spectrophotometric, Mansur equation; assay type: physicochemical; conditions: for SPF: 1.0 mg in 5 mL ethanol, absorbance 290-320 nm, Mansur equation
Method: Sample preparation 1.0 mg of all samples was weighed, transferred to a 5 mL volumetric flask, diluted to volume with ethanol, followed by ultra-sonication for 5 min. The absorption spectra of samples in solution were obtained in the range of 290 to 450 nm using 1 cm quartz cell, and ethanol as a blank. The absorption data were obtained in the range of 290 to 320, every 5 nm, and 3 determinations were made at each point, followed by the application of Mansur equation.
Where CF (correction factor) is 10, EE (A) is erythmogenic effect of radiation with wavelength λ, Abs is Spectrophotometric absorbance values at wavelength λ. The obtained absorbance values are multiplied with EE (λ)×1 (λ) and then their summation is taken and multiplied with correction factor to obtain the SPF values.

S. pyogenes ATCC 19615 = experiment: MIC/MBC broth microdilution, S. pyogenes; assay type: cell-based; conditions: Streptococcus pyogenes, ATCC19615; S. pyogenes ATCC 19615, 24 h, 0.5 to 512 μg/mL
Method: (§1) Compounds/extracts were tested against the following bacterial strains: Pseudomonas aeruginosa ATCC 27853, Staphylococcus aureus ATCC 29213, Staphylococcus epidermidis ATCC 14990, Streptococcus pyogenes ATCC 19615, Micrococcus luteus ATCC 4698. Prior to each in vitro bioassay, fresh cultures were obtained for each strain using the appropriate medium and incubation conditions as follows. Staphylococcus spp. and P. aeruginosa were grown on Mueller-Hinton (MH) agar (Liofilchemsrl, Italy) for 24 h at 37° C., while M. luteus was grown in Tryptic Soy agar (TSA, Liofilchem srl, Italy) for 24 h at 30° C. and S. pyogenes on TSA with 5% defibrinated sheep blood (Thermo Fisher Scientific, USA) for 24 h at 37° C. in an atmosphere of 5% CO2.
(§2) Minimum inhibitory concentrations (MICs) of compounds/extracts were determined using a broth microdilution technique, following the recommendations of the Clinical and Laboratory Standards Institute. Briefly, fresh colonies of each strain were used to prepare the respective inocula with an optical density at 600 nm (OD600) equal to 0.1 (approximately 1^10^8 CFU/mL). For all strains, cation-adjusted Mueller-Hinton broth (MHB2, Sigma-Aldrich, USA) was used, but in the case of S. pyogenes, MBH2 was previously supplemented with 2.5% lysed horse blood (Thermo Fisher Scientific, USA). In 96-well, U-bottom, microplates, each compound was serially diluted in the respective medium from stock solutions (10 mg/mL in DMSO) to achieve in-test concentrations ranging from 0.5 to 512 μg/mL. Wells were inoculated so that the final concentration in eachwas of 5×10^5 CFU/mL. The microplates were incubated at 37° C. for 24 h. The MIC was defined as the lowest concentration of compound inhibiting the bacterial growth visible to the naked eye.

M. luteus ATCC 4698 = experiment: MIC/MBC broth microdilution, M. luteus; assay type: cell-based; conditions: Micrococcus luteus, ATCC4698; M. luteus ATCC 4698, 24 h, 0.5 to 512 μg/mL
Method: as §1, §2

P. aeruginosa ATCC 27853 = experiment: MIC/MBC broth microdilution, P. aeruginosa; assay type: cell-based; conditions: Pseudomonas aeruginosa, ATCC27853; P. aeruginosa ATCC 27853, 24 h, 0.5 to 512 μg/mL
Method: as §1, §2

[2] = test system: S. epidermidis ATCC 14990; experiment: MIC/MBC broth microdilution, S. epidermidis; assay type: cell-based; conditions: Staphylococcus epidermidis, ATCC14990; S. epidermidis ATCC 14990, 24 h, 0.5 to 512 μg/mL
Method: as §1, §2

S. aureus ATCC 29213 = experiment: MIC/MBC broth microdilution, S. aureus; assay type: cell-based; conditions: Staphylococcus aureus, ATCC29213; S. aureus ATCC 29213, 24 h, 0.5 to 512 μg/mL
Method: as §1, §2

[3] = Cytotoxicity to human fibroblasts and keratinocytes, MTT assay; assay type: cell-based; conditions: HaCat, HFF-1 and Heka cells, 0.78-100 μM
Method: For this purpose, immortalized human foreskin fibroblasts HFF-1 were grown as monolayers from passage number 9-18 and maintained at 37° C. in an atmosphere of 5% CO2. For routine maintenance, the cells were cultured in 22.1 cm^2 plates as monolayers and maintained in Dulbecco's Modified Eagle Medium (DMEM, from Cell Lines Service), supplemented with 10% fetal bovine serum (FBS, from CLS) and 1% of antibiotic/antimycotic solution (100 units/mL of penicillin, 10 mg/mL of streptomycin and 0.25 mg/mL of amphotericin B from Sigma-Aldrich, St. Louis, MO, United States). The medium was replaced every two days and the cells were harvested every two weeks.
The cytotoxicity of the anthocyanins derivatives to HFF-1, Heka, and HaCat cells was evaluated using the standard MTT assay. Briefly, cells were seeded at a density of 5×10^4 cells or 1.5×10^4 cells/well onto 96-well plates and incubated at 37° C. in a 5% CO2 atmosphere. Cells were allowed to grow for 24 h, and serially diluted solutions of the different compounds (0.78-100 μM) were added to the wells. Then, cells were incubated for 48 h at 37° C., after which wells were washed once with phosphate buffered saline solution (PBS, Sigma-Aldrich, St. Louis, MO, United States), followed by addition of 0.45 mg/mL of MTT solution to each well. Crystals were allowed to form for 2 h. […] Absorbance was read at 570 nm.

4-(Dimethylamino)-cinnamyl-10-vinylene-pyranomalvidin-3-glucoside [VII-B]
SPF [1]: 15.02 ± 0.07

O=C(O)C1=Cc2c(OC3OC(CO)C(O)C(O)C3O)c(-c3ccc(O)c(O)c3)[o+]c3cc(O)cc(c23)O1 (centres unmarked) [II-A, Carboxypyranocyanidin-3-glucoside]
MIC (S. pyogenes ATCC 19615): > 512 µg/mL | MIC (M. luteus ATCC 4698): > 512 µg/mL | MIC (P. aeruginosa ATCC 27853): > 512 µg/mL | MIC [2]: > 512 µg/mL | SPF [1]: 20.71 ± 0.18 | MIC (S. aureus ATCC 29213): > 512 µg/mL

COc1cc(-c2[o+]c3cc(O)cc4c3c(c2OC2OC(CO)C(O)C(O)C2O)C=C(C(=O)O)O4)cc(OC)c1O (centres unmarked) [II-B, Carboxypyranomalvidin-3-glucoside]
MIC (S. pyogenes ATCC 19615): > 512 µg/mL | MIC (M. luteus ATCC 4698): > 512 µg/mL | MIC (P. aeruginosa ATCC 27853): > 512 µg/mL | MIC [2]: > 512 µg/mL | UV protection (0.2 mg/mL) ([1]; 0.2 mg/mL): 13.92 ± 0.04 | SPF [1]: 13.92 ± 0.04 | IC50 at 48 h [3]: > 100 µM | MIC (S. aureus ATCC 29213): > 512 µg/mL

CC1=Cc2c(OC3OC(CO)C(O)C(O)C3O)c(-c3ccc(O)c(O)c3)[o+]c3cc(O)cc(c23)O1 (centres unmarked) [III-A, Methylpyranocyanidin-3-glucoside]
MIC (S. pyogenes ATCC 19615): > 512 µg/mL | MIC (M. luteus ATCC 4698): > 512 µg/mL | MIC (P. aeruginosa ATCC 27853): > 512 µg/mL | MIC [2]: > 512 µg/mL | SPF [1]: 18.53 ± 0.15 | MIC (S. aureus ATCC 29213): > 512 µg/mL

CN(C)c1ccc(C2=Cc3c(OC4OC(CO)C(O)C(O)C4O)c(-c4ccc(O)c(O)c4)[o+]c4cc(O)cc(c34)O2)cc1 (centres unmarked) [V-C, Pyranocyanidin-3-glucoside-(4-dimethylamino)-cinnamyl]
SPF [1]: 13 ± 0.04

COc1cc(-c2[o+]c3cc(O)cc4c3c(c2OC2OC(CO)C(O)C(O)C2O)C=C(/C=C/c2c(O)cc(O)c3c2OC(c2ccc(O)c(O)c2)C(O)C3)O4)cc(OC)c1O (centres unmarked) [VI-B, Vinylpyranomalvidin-3-O-glucoside-cathechin]
SPF [1]: 8.35 ± 0.06

CN(C)c1ccc(/C=C/C=C/C2=Cc3c(OC4OC(CO)C(O)C(O)C4O)c(-c4ccc(O)c(O)c4)[o+]c4cc(O)cc(c34)O2)cc1 (centres unmarked) [VIII-A, 4-(Dimethylamino)-cinnamyl-10-butadienylidene-pyranocyanidin-3-O-glucoside]
SPF [1]: 14.78 ± 0.02

Cyanidin-3-O-glucoside-4-vinylcatechol [V-A]
SPF [1]: 24.00 ± 0.01

Malvidin-3-O-glucoside-4-vinylcatechol [V-B]
SPF [1]: 10.02 ± 0.00
